The text below walks through data of PubChem BioAssay AID1626 (SRMLSC, 2009).

This assay relates to M. tuberculosis H37Rv growth inhibition. Nature of the assay: M. tuberculosis H37Rv growth inhibitors, H37Rv strain (AID 1626). The following applies: for IC90: measured here: IC90 against H37Rv; for CC50: measured here: Vero cell cytotoxicity.

Regarding `CN(CC(=O)Nc1ccc(Cl)c(Cl)c1)Cc1nnc(-c2ccc(F)cc2)o1`, the half-maximal inhibitory concentration (IC50) (as a rule, the concentration that gives 50% inhibition) was 15.9 µM and the IC90 (commonly the concentration at which the effect reaches the 90% level) came out at 24.1 µM.

`Oc1c(Cl)cc(Cl)cc1/C=C/c1ccc2cccc(O)c2n1`: the concentration for half-maximal inhibition (IC50) is 3.06 µM, the IC90 is more than 100 µM and the 50% cytotoxic concentration (CC50) (usually the concentration at which the toxic effect on the cells reaches its halfway point) was found to be 10.1 µM.

Regarding `Cc1ccc(CN=c2c([N+](=O)[O-])nn(-c3cccc(Cl)c3)n2O)cc1`, the half-inhibitory concentration (IC50) was 2.8 µM and the IC90 came out at 2.94 µM.

Take `CCOc1ccc(N2CCc3c(C)nc(SC)nc32)cc1`: the concentration for half-maximal inhibition (IC50) is less than 0.195 µM, the IC90 was 40.3 µM and the half-maximal cytotoxic concentration (CC50) worked out at 27.1 µM.

In the case of `CCCCc1ccc(NC(=O)c2cnccn2)cc1`, the IC50 is 52.1 µM, the IC90 was more than 100 µM and the half-maximal cytotoxic concentration (CC50) was more than 40 µM.

For `COc1ccc(N=Cc2c(O)ccc3ccccc23)cc1`, the IC90 is more than 100 µM.

As to `CSc1ccc2c(c1)C(N1CCN(C)CC1)Cc1ccccc1S2` (stereo not drawn), the IC50 was 8.54 µM, the IC90 worked out at 10.9 µM and the 50% cytotoxic concentration (CC50) was determined as 20.9 µM.

Turning to `O=[N+]([O-])c1ncccc1Oc1nc(-c2cccnc2)nc2ccccc12`, the half-maximal inhibitory concentration (IC50) is 7.07 µM and the IC90 is more than 100 µM.

As to `CN1/C(=C\C(=O)c2cccs2)Sc2ccccc21`, the IC50 is 5.65 µM, the concentration for an effect of 90% (IC90) is 13.6 µM and the CC50 was more than 40 µM.

With `Cc1cc(Cl)n2c(nc3cc(F)c(F)cc32)c1C#N`, the concentration for half-maximal inhibition (IC50) is 3.98 µM, the IC90 came out at 10.5 µM and the cytotoxic concentration (CC50) is 2.29 µM.

The molecule `Cc1nc(NC(=O)CSc2nnc(-c3ccc4c(c3)OCO4)o2)c(Cl)cc1Cl` yielded a concentration for an effect of 90% (IC90) of more than 100 µM.

For the molecule `O=C(Oc1c(Cl)cc(Cl)c2cccnc12)c1ccco1`, the IC50 is 1.28 µM, the concentration for an effect of 90% (IC90) came to 1.78 µM and the CC50 was determined as 10 µM.

Take `OC(CN1CCN(c2ccccn2)CC1)Cn1c2ccc(Cl)cc2c2cc(Cl)ccc21` (stereo not drawn): the half-maximal inhibitory concentration (IC50) was 2.31 µM, the IC90 was determined as 3.12 µM and the CC50 came out at 21.5 µM.

On to `COc1cccc2sc(N(CCCN(C)C)C(=O)C(c3ccccc3)c3ccccc3)nc12`, for which the concentration for half-maximal inhibition (IC50) was 13.5 µM, the 90% effect concentration (IC90) was found to be 18.4 µM and the CC50 is 21.8 µM.

As to `COc1cccc(C(=O)Oc2ccccc2/C=C\C(=O)c2cc3ccccc3o2)c1`, the IC50 is 3.43 µM, the concentration for an effect of 90% (IC90) stood at 5.83 µM and the CC50 is 11.4 µM.

On to `COc1cc(/C=C/c2ccc3c([N+](=O)[O-])cccc3n2)ccc1OCC(=O)O`, for which the 50% inhibitory concentration (IC50) is 2.72 µM and the IC90 was 6.3 µM.

As for `N#CC(C#N)=c1ccc2c(c1)N1C(c3ccccc3)=CC(c3ccccc3)C3CCCCC31N=2` (stereo not drawn), the 50% inhibitory concentration (IC50) is 28.3 µM and the IC90 was more than 100 µM.

With `Clc1ccc2c(c1)C(c1ccccc1Cl)=NCc1nnc(N3CCN(CCOc4ccccc4)CC3)n1-2`, the half-inhibitory concentration (IC50) is 12.5 µM, the concentration for an effect of 90% (IC90) amounted to 16.7 µM and the half-maximal cytotoxic concentration (CC50) is more than 40 µM.

With `COC(=O)c1ccnc(SCC(=O)c2ccccc2)c1`, the IC50 was 15.8 µM and the concentration for an effect of 90% (IC90) came out at 26.6 µM.

Regarding `CC(C)COC(=O)c1ccc2c(c1O)C(=O)c1ccccc1C2=O`, the IC50 is 2.51 µM, the 90% effect concentration (IC90) came to 4.11 µM and the CC50 is 27.8 µM.

Regarding `O=C(Nc1cccc(NC(=O)c2cccs2)c1)c1ccc([N+](=O)[O-])o1`, the IC50 is 7.97 µM, the concentration for an effect of 90% (IC90) is 14.3 µM and the half-maximal cytotoxic concentration (CC50) turned out to be 13.8 µM.

For `O=C(/C=C/c1ccccc1O)c1ccc(Cl)cc1`, the 50% inhibitory concentration (IC50) is 14.4 µM, the 90% effect concentration (IC90) came to 24.1 µM and the CC50 came out at 27 µM.

With `COc1c(F)c(F)c(C(=O)Nc2ccc(N3CCN(Cc4ccccc4)CC3)cc2)c(F)c1F`, the IC50 was 35.9 µM, the IC90 was more than 100 µM and the CC50 came to 27.5 µM.

`COc1ccc(-c2oc3ccc(N4CCOCC4)cc3c2C#CC2(O)CCCCC2)cc1` returned a half-maximal cytotoxic concentration (CC50) of more than 40 µM.

Regarding `COc1ccc(OCC(O)Cn2c(=N)n(CCN3CCCCC3)c3ccccc32)cc1` (stereo not drawn), the IC50 is 6.22 µM, the IC90 is 6.86 µM and the CC50 is more than 40 µM.
